This note sets out measurements from PubChem BioAssay (NCI).

Test systems include HS 578T breast; TK-10 renal; COLO 205 colon; MCF7 breast; OVCAR-3 ovarian; OVCAR-8 ovarian; NCI-H522 lung; SR leukemia; A549 NSCLC; SK-MEL-5 melanoma.
Common to all, as to experiment: NCI-60 cell line screen, 48 h

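Dose response: 5 concentrations. Exposure: 48 h. Format: 96-well plates. Endpoint: linear interpolation; highest concentration if not reached. TGI: concentration producing complete growth inhibition.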 Some results are limits rather than exact numbers.

Consider `COC(=O)C(CNC(=O)/C=C/c1ccc(OC(C)=O)c(OC(C)=O)c1)NC(=O)/C=C/c1ccc(OC(C)=O)c(OC(C)=O)c1` (stereo not given), for which the TGI in the assay with HS 578T breast, in the assay on TK-10 renal, in the assay with COLO 205 colon, in the assay with MCF7 breast, with OVCAR-3 ovarian and with OVCAR-8 ovarian was > 100 µM throughout. Moreover, the TGI in the assay on NCI-H522 lung, with SR leukemia, in the assay with A549 NSCLC and in the assay on SK-MEL-5 melanoma was > 100 µM throughout.

For `Nc1ccn(CC(O)c2cc3ccccc3[nH]2)c(=O)n1` (stereo not given), the TGI with HS 578T breast, in the assay with TK-10 renal, with COLO 205 colon, in the assay on MCF7 breast, in the assay with OVCAR-3 ovarian and with OVCAR-8 ovarian was > 100 µM each time. Moreover, the TGI in the assay with NCI-H522 lung, with SR leukemia, in the assay with A549 NSCLC and in the assay on SK-MEL-5 melanoma was > 100 µM throughout.

`CC(C)(CO)CNc1cc(Cl)nc(N)n1`: the TGI in the assay with HS 578T breast, with TK-10 renal, in the assay on COLO 205 colon, with MCF7 breast, in the assay with OVCAR-3 ovarian and in the assay with OVCAR-8 ovarian was > 100 µM each time. The TGI with NCI-H522 lung, in the assay on SR leukemia, in the assay with A549 NSCLC and in the assay with SK-MEL-5 melanoma was > 100 µM in each case.

For `O=C1/C(=C/c2ccc(O)cc2)Oc2ccccc21`, the TGI with HS 578T breast, in the assay on TK-10 renal, with COLO 205 colon, in the assay on MCF7 breast, with OVCAR-3 ovarian and in the assay on OVCAR-8 ovarian was > 100 µM in each case. For the same molecule, the TGI is 62 µM in the assay on NCI-H522 lung, > 100 µM in the assay with SR leukemia, > 100 µM with A549 NSCLC and > 100 µM with SK-MEL-5 melanoma.

Consider `CC1C(c2ccccc2)NC(c2ccccc2)CC1(N)C#N` (stereo not given), for which the TGI in the assay on HS 578T breast, in the assay on TK-10 renal, in the assay on COLO 205 colon, in the assay on MCF7 breast, in the assay with OVCAR-3 ovarian and in the assay on OVCAR-8 ovarian was > 100 µM throughout. For the same molecule, the TGI in the assay on NCI-H522 lung, with SR leukemia, in the assay with A549 NSCLC and in the assay on SK-MEL-5 melanoma was > 100 µM each time.

`CC(C)OP(=O)(OC(C)C)/C(C#N)=C/c1c[nH]c2ccccc12`: the TGI with HS 578T breast, in the assay on TK-10 renal, with COLO 205 colon, with MCF7 breast, in the assay with OVCAR-3 ovarian and with OVCAR-8 ovarian was > 100 µM each time. Moreover, the TGI with NCI-H522 lung, in the assay with SR leukemia, in the assay on A549 NSCLC and with SK-MEL-5 melanoma was > 100 µM each time.

Turning to `CC(C)(C)OC(=O)NNCC(O)COc1ccccc1` (stereo not given), the TGI in the assay with HS 578T breast, in the assay on TK-10 renal, in the assay on COLO 205 colon, in the assay on MCF7 breast, with OVCAR-3 ovarian and with OVCAR-8 ovarian was > 100 µM throughout. The TGI in the assay with NCI-H522 lung, with SR leukemia, in the assay with A549 NSCLC and in the assay with SK-MEL-5 melanoma was > 100 µM in each case.

Consider `Cc1oc2nc(N(C)C)n3cnnc3c2c1C`, for which the TGI in the assay on HS 578T breast, in the assay on TK-10 renal, with COLO 205 colon, in the assay with MCF7 breast, in the assay on OVCAR-3 ovarian and with OVCAR-8 ovarian was > 100 µM throughout. In addition, the TGI with NCI-H522 lung, in the assay on SR leukemia, in the assay with A549 NSCLC and with SK-MEL-5 melanoma was > 100 µM throughout.

Consider `OCC(S)CS.[Bi]` (stereo not given), for which the TGI in the assay on HS 578T breast was 53.5 µM; in the assay with TK-10 renal, 32.4 µM; in the assay on COLO 205 colon, 30 µM; with MCF7 breast, > 100 µM; in the assay on OVCAR-3 ovarian, 24.7 µM; in the assay with OVCAR-8 ovarian it was 52.3 µM. Also, the TGI is 12.9 µM in the assay on NCI-H522 lung, > 100 µM with SR leukemia, > 100 µM with A549 NSCLC and > 100 µM in the assay on SK-MEL-5 melanoma.

Turning to `O=C1C=CC(=O)c2c(O)c(N(CCCl)CCCl)c(Cl)c(O)c21`, the TGI was > 10 µM in the assay with HS 578T breast; 4.93 µM with TK-10 renal; 5.57 µM in the assay with COLO 205 colon; > 8.33 µM in the assay with MCF7 breast; 7.25 µM with OVCAR-3 ovarian; 6.9 µM in the assay on OVCAR-8 ovarian. Moreover, the TGI in the assay with NCI-H522 lung was 6.01 µM; with SR leukemia it was > 10 µM; with A549 NSCLC, > 10 µM; with SK-MEL-5 melanoma, 7.41 µM.

In the case of `COc1ccc(/N=N/C(=NNC(=O)c2ccc(C)cc2)c2ccc(N(C)C)cc2)cc1`, the TGI in the assay with HS 578T breast is > 100 µM; in the assay on TK-10 renal, > 100 µM; with COLO 205 colon, > 85.8 µM; with MCF7 breast, 56.1 µM; with OVCAR-3 ovarian, > 79.4 µM; in the assay with OVCAR-8 ovarian, > 100 µM. Further, the TGI is 97.9 µM with NCI-H522 lung, 88.7 µM in the assay on SR leukemia, > 100 µM in the assay with A549 NSCLC and > 95.3 µM in the assay with SK-MEL-5 melanoma.

Regarding `Fc1ccc2c(c1)nc1n2C(c2c(F)cccc2F)SC1` (stereo not given), the TGI with HS 578T breast, with TK-10 renal, in the assay on COLO 205 colon, with MCF7 breast, with OVCAR-3 ovarian and in the assay on OVCAR-8 ovarian was > 100 µM in each case. Further, the TGI in the assay with NCI-H522 lung was > 100 µM; with SR leukemia, 58.5 µM; with A549 NSCLC it was > 100 µM; in the assay on SK-MEL-5 melanoma, 68.3 µM.

On to `O=C(Cn1c(=O)oc2ccc(C(=O)c3cccc(Cl)c3)cc21)c1ccccc1`, for which the TGI with HS 578T breast, in the assay with TK-10 renal, with COLO 205 colon, in the assay on MCF7 breast, in the assay with OVCAR-3 ovarian and with OVCAR-8 ovarian was > 100 µM each time. In addition, the TGI in the assay with NCI-H522 lung, in the assay on SR leukemia, in the assay on A549 NSCLC and with SK-MEL-5 melanoma was > 100 µM throughout.
